Reference: ChEMBL document CHEMBL1201862, “PubChem BioAssay data set” (2004)
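How tested: cells in 96-well plates exposed to compound for 48 hours at five concentrations. Here, GI50 denotes the concentration required for 50% inhibition of growth.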 The source made the active and inactive calls. Rule as the data show it: active = GI50 up to about 1.1 µM and inactive = higher.

Assays:
Test in all cases: NCI tumour cell line growth inhibition, 48 h
786-0 = system: 786-0
EKVX = system: EKVX
HCT-116 = system: HCT-116
KM12 = system: KM12
LOX IMVI = system: LOX IMVI
MDA-N = system: MDA-N
MOLT-4 = system: MOLT-4
NCI-H226 = system: NCI-H226
NCI-H460 = system: NCI-H460
NCI-H522 = system: NCI-H522
OVCAR-5 = system: OVCAR-5
PC-3 = system: PC-3
RXF 393 = system: RXF 393
SF-539 = system: SF-539
SK-MEL-28 = system: SK-MEL-28
SNB-19 = system: SNB-19
T47D = system: T47D
TK-10 = system: TK-10
UO-31 = system: UO-31

Row | SMILES | GI50 (786-0) | GI50 (EKVX) | GI50 (HCT-116) | GI50 (KM12) | GI50 (LOX IMVI) | GI50 (MDA-N) | GI50 (MOLT-4) | GI50 (NCI-H226) | GI50 (NCI-H460) | GI50 (NCI-H522) | GI50 (OVCAR-5) | GI50 (PC-3) | GI50 (RXF 393) | GI50 (SF-539) | GI50 (SK-MEL-28) | GI50 (SNB-19) | GI50 (T47D) | GI50 (TK-10) | GI50 (UO-31)
1 | c1ccc2cc(NCNc3ccc4ccccc4c3)ccc2c1 | 17.3 µM (inactive) | 14.6 µM (inactive) | 16.7 µM (inactive) | 13.6 µM (inactive) | 10.8 µM (inactive) | 4.33 µM (inactive) | 0.785 µM (active) | 17.2 µM (inactive) | 13.4 µM (inactive) | 17.6 µM (inactive) | 21.3 µM (inactive) | 15.5 µM (inactive) | 10.3 µM (inactive) | 29.3 µM (inactive) | 34.8 µM (inactive) | 28.1 µM (inactive) | 15.7 µM (inactive) | 21.7 µM (inactive) | 13.7 µM (inactive)
2 | Cc1ncc(CO)c(/C=N/CCCCCC/N=C/c2c(CO)cnc(C)c2[O-])c1[O-].[Mg+2] | > 100 µM (inactive) | > 100 µM (inactive) | > 100 µM (inactive) | > 100 µM (inactive) | > 100 µM (inactive) | > 100 µM (inactive) | > 100 µM (inactive) | > 100 µM (inactive) | > 100 µM (inactive) | > 100 µM (inactive) | > 100 µM (inactive) | > 100 µM (inactive) | > 100 µM (inactive) | > 100 µM (inactive) | > 100 µM (inactive) | > 100 µM (inactive) | > 100 µM (inactive) | > 100 µM (inactive) | > 100 µM (inactive)
3 | C[C@]12CC[C@H](O)C[C@@H]1CC[C@@H]1[C@@H]2CC[C@]2(C)[C@@H](c3cc(C(F)(F)F)[nH]n3)CC[C@@H]12 | 4.35 µM (inactive) | 10.8 µM (inactive) | 3.35 µM (inactive) | 10.1 µM (inactive) | 6.11 µM (inactive) | 10.8 µM (inactive) | 3.95 µM (inactive) | 14.6 µM (inactive) | 3.18 µM (inactive) | > 22.5 µM (inactive) | 10.5 µM (inactive) | 6.38 µM (inactive) | 4.15 µM (inactive) | 7.36 µM (inactive) | 13.1 µM (inactive) | 9.68 µM (inactive) | 5.26 µM (inactive) | 6.07 µM (inactive) | 1.51 µM (inactive)
4 | CN(C)CC1CCC/C(=C\c2ccc(OC(=O)/C=C/c3ccc(Cl)cc3)cc2)C1=O (stereo unspecified) | 1.07 µM (active) | 7.14 µM (inactive) | 3.56 µM (inactive) | 1.47 µM (inactive) | 1.58 µM (inactive) | 6.9 µM (inactive) | 1.05 µM (active) | 11 µM (inactive) | 8.02 µM (inactive) | 0.916 µM (active) | 16.7 µM (inactive) | 5.35 µM (inactive) | 1.32 µM (inactive) | 2.57 µM (inactive) | 6.14 µM (inactive) | 8.43 µM (inactive) | 1.15 µM (inactive) | 1.31 µM (inactive) | 4.99 µM (inactive)
5 | CN1N=C(c2ccncc2)OC1c1cccc(C(F)(F)F)c1 (stereo unspecified) | > 100 µM (inactive) | > 100 µM (inactive) | 67.1 µM (inactive) | > 100 µM (inactive) | > 100 µM (inactive) | > 100 µM (inactive) | > 100 µM (inactive) | 58.9 µM (inactive) | > 100 µM (inactive) | > 100 µM (inactive) | > 100 µM (inactive) | > 100 µM (inactive) | > 100 µM (inactive) | 27.5 µM (inactive) | > 100 µM (inactive) | > 100 µM (inactive) | 96.6 µM (inactive) | > 100 µM (inactive) | > 100 µM (inactive)
6 | O=C1Nc2ccccc2S/C1=C\c1ccc(C(F)(F)F)cc1 | > 100 µM (inactive) | 55.1 µM (inactive) | > 100 µM (inactive) | > 100 µM (inactive) | > 100 µM (inactive) | > 100 µM (inactive) | > 100 µM (inactive) | > 100 µM (inactive) | > 100 µM (inactive) | > 100 µM (inactive) | > 100 µM (inactive) | > 100 µM (inactive) | > 100 µM (inactive) | > 100 µM (inactive) | > 100 µM (inactive) | > 100 µM (inactive) | > 100 µM (inactive) | > 100 µM (inactive) | 94 µM (inactive)
7 | N#Cc1c(-c2ccc([N+](=O)[O-])cc2)c2c([nH]c1=O)-c1ccccc1CCC2 | > 100 µM (inactive) | > 100 µM (inactive) | 60.4 µM (inactive) | 40.7 µM (inactive) | 56.6 µM (inactive) | 94.2 µM (inactive) | 39.4 µM (inactive) | 44 µM (inactive) | 51.1 µM (inactive) | 41.5 µM (inactive) | > 100 µM (inactive) | 80.2 µM (inactive) | 30.9 µM (inactive) | 52.7 µM (inactive) | 47.9 µM (inactive) | 70.1 µM (inactive) | 21.5 µM (inactive) | > 100 µM (inactive) | 86.3 µM (inactive)
8 | N/N=c1\[nH]c2ccccc2o1 | 86.7 µM (inactive) | > 100 µM (inactive) | 80 µM (inactive) | > 100 µM (inactive) | > 100 µM (inactive) | > 100 µM (inactive) | 24.2 µM (inactive) | > 100 µM (inactive) | > 100 µM (inactive) | 57.1 µM (inactive) | > 100 µM (inactive) | > 100 µM (inactive) | > 100 µM (inactive) | > 100 µM (inactive) | > 100 µM (inactive) | > 100 µM (inactive) | 30.1 µM (inactive) | > 100 µM (inactive) | 93.5 µM (inactive)
9 | N[C@H]1c2c(Br)sc(Br)c2C(=O)[C@H]1O | 18.6 µM (inactive) | 12.9 µM (inactive) | 16.4 µM (inactive) | 34.9 µM (inactive) | 3.61 µM (inactive) | 13.2 µM (inactive) | 5.14 µM (inactive) | 22.2 µM (inactive) | 19.2 µM (inactive) | 3.18 µM (inactive) | 22 µM (inactive) | 28.5 µM (inactive) | 4.95 µM (inactive) | 18.5 µM (inactive) | 10.3 µM (inactive) | 21.8 µM (inactive) | 21.9 µM (inactive) | 96.8 µM (inactive) | 20.3 µM (inactive)
10 | CCSc1c(C)c2c(n(Cc3ccc(OC)cc3)c1=O)Cc1ccccc1C2 | 11 µM (inactive) | 21.4 µM (inactive) | 11.2 µM (inactive) | 25.1 µM (inactive) | 11.9 µM (inactive) | 10.4 µM (inactive) | 2.53 µM (inactive) | 36.5 µM (inactive) | 6.11 µM (inactive) | 11.9 µM (inactive) | 46.9 µM (inactive) | 15.3 µM (inactive) | 32.1 µM (inactive) | 19.2 µM (inactive) | 92.7 µM (inactive) | 18.2 µM (inactive) | 30.5 µM (inactive) | 27.2 µM (inactive) | 12.4 µM (inactive)
11 | COC(=O)C1=C(C)NC(C)=C(C(=O)OC)C1c1ccc(/[N+]([O-])=C/c2ccccc2)cc1 | 17.3 µM (inactive) | 71.6 µM (inactive) | 16.4 µM (inactive) | > 100 µM (inactive) | 45 µM (inactive) | 34.4 µM (inactive) | 24.1 µM (inactive) | 62.4 µM (inactive) | 66.8 µM (inactive) | 14.6 µM (inactive) | > 100 µM (inactive) | 64.1 µM (inactive) | 19.7 µM (inactive) | > 100 µM (inactive) | 18.7 µM (inactive) | 94.2 µM (inactive) | 19.8 µM (inactive) | 92.9 µM (inactive) | 37.1 µM (inactive)
12 | COc1cc(/C=C2\CC(C)C/C(=C\c3ccc(O)c(OC)c3)C2=O)ccc1O (stereo unspecified) | > 20.2 µM (inactive) | 13.8 µM (inactive) | 1.77 µM (inactive) | 1.85 µM (inactive) | 2.29 µM (inactive) | 2.54 µM (inactive) | 2.29 µM (inactive) | 4.85 µM (inactive) | 2.88 µM (inactive) | 2.11 µM (inactive) | 19.6 µM (inactive) | 4 µM (inactive) | 2.85 µM (inactive) | 3.12 µM (inactive) | 3.42 µM (inactive) | 10.2 µM (inactive) | 1.6 µM (inactive) | 5.45 µM (inactive) | 2.24 µM (inactive)
13 | Nc1ccc(CCSSCCc2ccc(N)cc2)cc1 | 17 µM (inactive) | 53.5 µM (inactive) | 16.1 µM (inactive) | 30.3 µM (inactive) | 21.9 µM (inactive) | 27.7 µM (inactive) | 1.81 µM (inactive) | 27.5 µM (inactive) | 25.7 µM (inactive) | 12.9 µM (inactive) | 29.6 µM (inactive) | 29.4 µM (inactive) | 21.8 µM (inactive) | 24.9 µM (inactive) | 28.3 µM (inactive) | 50.7 µM (inactive) | 35.6 µM (inactive) | 36.1 µM (inactive) | 22.7 µM (inactive)
14 | Cc1ccc(S(=O)(=O)C2=C([Si](C)(C)C)C3CC2[C@@H]2C4C=CC(CC4)[C@H]32)cc1 (stereo partly specified) | 34.6 µM (inactive) | > 100 µM (inactive) | > 100 µM (inactive) | > 100 µM (inactive) | > 100 µM (inactive) | > 100 µM (inactive) | > 100 µM (inactive) | 95.3 µM (inactive) | 86.1 µM (inactive) | 51.9 µM (inactive) | > 100 µM (inactive) | 35.3 µM (inactive) | 33.5 µM (inactive) | 25.6 µM (inactive) | > 100 µM (inactive) | 23.8 µM (inactive) | 37.9 µM (inactive) | 27 µM (inactive) | > 100 µM (inactive)
